Results reported in patent US6989380B2, “Treatment of pain” (The WKK Trust, priority 1996, dated 2006).

Test system: intractable trigeminal neuralgia
Assay: Case history: intractable trigeminal neuralgia
Assay type: in vivo, human
Details: person; treatments tried before the combination; relief attributed to placebo effects
Protocol: A person suffered from intractable trigeminal neuralgia of many years standing. […] They then were treated with lofepramine, 70 mg bd, together with L-phenylalanine, 500 mg bd.

Row | Structure (SMILES) | pain relief with earlier treatments
1 | NC(=O)N1c2ccccc2C=Cc2ccccc21 [carbamazepine] | None had provided more than transient relief for a few days
2 | CN1C(=O)CN=C(c2ccccc2)c2cc(Cl)ccc21 [diazepam] | None had provided more than transient relief for a few days
3 | CNCCC(Oc1ccc(C(F)(F)F)cc1)c1ccccc1 (centres unmarked) [fluoxetine] | None had provided more than transient relief for a few days
4 | CN1CC[C@]23c4c5ccc(O)c4O[C@H]2[C@@H](O)C=C[C@H]3[C@H]1C5 [morpine] | None had provided more than transient relief for a few days
5 | O=C1NC(=O)C(c2ccccc2)(c2ccccc2)N1 [phenytoin] | None had provided more than transient relief for a few days
